According to patent publication US11752116B2, “Method of viral inhibition” (priority 2013, dated 2023):

What was measured:
DENV-2 [1] = test: Delayed addition in DENV-2 infected Huh-7 cells, NS1 RNA by qPCR; assay type: cell-based
Method: To gain further insight into the mode of action of 4-HPR, the human liver carcinoma cell line, Huh-7 cells were infected with DENV-2 (MOI of 1), followed by delayed addition of drug diluent DMSO (DENV only), 7.5 μM 4-HPR, 7.5 μM 4-MPR or 10 μM NITD008 (a previously described adenosine nucleoside inhibitor), 12 h post infection. Cells were lysed at the indicated times, RNA was extracted by Trizol and analysed by qPCR with fold change in expression of NS1 calculated relative to the untreated control (FIG. 5B). Concurrently, culture medium was collected and viral titres determined by plaque assay (FIG. 5C).

DENV-2 [2] = test: DENV-2 infectivity assay in Vero cells, viral RNA copies in culture medium by RT-PCR; assay type: cell-based; settings: MOI of 1; for effect on DENV infection (viral RNA copies at 24 h p.i.): 10 μM compound
Method: To test the specificity of 4-HPR and 4-oxo-4-HPR for anti-DENV activity Vero cells were infected with DENV-2 with a multiplicity of infection (MOI) of 1, in the presence of drug diluent (untreated) or the indicated compounds (10 μM in FIG. 3A, or 10 μM or 5 μM as indicated in FIG. 3B) for 2 h, followed by removal of the virus/drug inoculums, and addition of fresh 2% FCS maintenance medium. At 24 h post infection (p.i.) the culture medium was collected and the viral RNA extracted using QIAamp viral RNA mini kit (Qiagen). Absolute RNA copies present in each sample were determined by Taqman One Step RT-PCR (Applied Biosystems), as an estimate of virus titre by extrapolation from a standard curve generated from in vitro transcribed DENV RNA. Data shown are the mean+standard error of the mean (SEM) for 3 (FIG. 3A) or 2 (FIG. 3B) independent experiments. Statistical analysis (Student's ttest) was performed using GraphPad Prism software.

DENV-1 [3] = test: ADE-mediated DENV-1 infection of human PBMCs, plaque assay; assay type: cell-based; settings: ADE-mediated DENV-1 infection, 48 h
Method: The antiviral activity of 4-HPR was investigated in the more physiologically relevant human system of peripheral blood mononuclear cells (PBMCs), a major target of DENV infection in humans.
PBMCs were prepared from a healthy donor buffy coat using a Ficoll gradient, prior to ADE-mediated DENV-1 infection (MOI of 10) in the presence of increasing concentrations of 4-HPR or 4-MPR, and infectious virus titres determined by plaque assay 48 h later.

DENV-2 [4] = test: Cell-based flavivirus immunodetection assay in BHK-21 cells, DENV-2; settings: BHK-21 cells, 48 h p.i.
Method: (§1) To investigate this, BHK-21 cells were infected with DENV serotypes 1, 2, 3 or 4 (MOI of 0.3) for 1 h in the presence of 4-HPR or 4-MPR (concentrations as indicated in FIG. 6A). Virus inoculum was removed and fresh media containing the indicated compounds was added. Virus infection rates were determined 48 h p.i. using a cell-based flavivirus immunodetection assay. Briefly, cells were fixed and stained for DENV structural protein, E, followed by addition of Alexa Fluor 488 anti-mouse IgG. Viral antigen quantification was performed using Imagexpress. Data shown are representative of a single experiment

DENV-4 = test: Cell-based flavivirus immunodetection assay in BHK-21 cells, DENV-4; settings: BHK-21 cells, 48 h p.i.
Method: as §1

[5] = test system: West Nile virus, Kunjin strain (WNVKUN); test: West Nile virus (Kunjin strain) infection of Vero cells, plaque assay; assay type: cell-based; settings: Vero cells
Method: FIG. 9C. Viral titre from a plaque assay conducted from Vero cells infected with West Nile virus (Kunjin strain; WNVKUN) after treatment with 10 μM 4-HPR for 4 h.

DENV-3 = test: Cell-based flavivirus immunodetection assay in BHK-21 cells, DENV-3; settings: 48 h p.i.
Method: as §1

DENV-2 NS5 / IMPα/β = DENV-2 NS5 / IMPα/β (Dengue virus type 2, UniProt P14340); test: AlphaScreen binding of His6-NS5 to IMPα/β heterodimer; settings: 3 nM His6-NS5, 10 nM IMPα/β, increasing concentrations of compound
Method: AlphaScreen®, a luminescent bead-based assay that measures direct protein-protein interactions, was used to examine the binding of 3 nM His6-NS5 to 10 nM IMPα/β (IMPα/β heterodimer containing biotinylated IMPβ1) in the presence of increasing concentrations of 4-HPR, 4-MPR or ATRA (FIG. 1A), or 4-oxo-4-HPR, 4-HPR or 4-MPR (FIG. 1B). Data are the mean±standard deviation (SD) of triplicate wells from a single typical experiment.
To investigate the specificity of 4-HPR inhibition of NS5-importin association, the binding of 30 nM His6-NS5 to 10 nM IMPα/β, (IMPα/β heterodimer containing biotinylated IMPβ1), 3 nM IMPαΔIBB (biotinylated IMPa with the IMPβ-binding domain removed), or 3 nM biotinylated IMPβ1, in the presence of increasing concentrations of 4-HPR, was investigated.

CHIKV = CHIKV infection of HEK293T cells, plaque assay; assay type: cell-based; settings: 5 μM, 24 h p.i.
Method: HEK293T cells were treated with 5 μM 4-HPR or 4-MPR for 2 h, then infected with CHIKV for 1 h (MOI of 0.1) in the absence of compound (FIG. 9A). Alternatively, HEK293T cells were infected with CHIKV for 1 h (MOI of 0.1) without pre-treating the cells with compound (FIG. 9B). In both instances, virus inoculums were removed, then fresh medium containing the indicated compound was added (FIG. 9A and FIG. 9B). Infectious virus titres were determined by plaque assay 24 h p.i. Data are the mean+standard deviation of one experiment performed in duplicate wells, represented as plaque forming units per ml (PFU/ml).

DENV-1 [6] = test: Cell-based flavivirus immunodetection assay in BHK-21 cells, DENV-1; settings: 48 h p.i.
Method: as §1

COc1ccc(NC(=O)/C=C(C)/C=C/C=C(C)/C=C/C2=C(C)CCCC2(C)C)cc1 [4-MPR, N-(4-methoxyphenyl) retinamide]
viral RNA levels (NS1 qPCR) (DENV-2 [1]; 7.5 μM added 12 h p.i., up to 60 h p.i.): viral RNA levels increased steadily until 60 h p.i.
effect on DENV infection (viral RNA copies at 24 h p.i.) (DENV-2 [2]): no effect on DENV infection
reduction of infectious virus titre in infected PBMCs (DENV-1 [3]): no reduction
effect on replication of DENV serotype 2 (DENV-2 [4]): did not have any effect
effect on replication of DENV serotype 4 (DENV-4): did not have any effect
antiviral activity against WNVKUN [5]: no antiviral activity
effect on replication of DENV serotype 3 (DENV-3): did not have any effect
block of association of DENV-2 NS5 with IMPα/β (DENV-2 NS5 / IMPα/β): neither ATRA nor 4-MPR were able to disrupt association
reduction of infectious CHIKV produced (CHIKV; HEK293T cells pre-treated 2 h with compound): did not reduce CHIKV titres
reduction of infectious CHIKV produced (CHIKV; HEK293T cells, compound added after infection): did not reduce CHIKV titres
effect on replication of DENV serotype 1 (DENV-1 [6]): did not have any effect

CC1=C(/C=C/C(C)=C/C=C/C(C)=C/C(=O)Nc2ccc(O)cc2)C(C)(C)CCC1=O [4-oxo-4-HPR, N-(4-hydroxyphenyl)-4-oxoretinamide]
reduction in viral RNA copies at 24 h p.i. (DENV-2 [2]; 5 μM compound for 2 h during infection): 1 log
block of association of DENV-2 NS5 with IMPα/β (DENV-2 NS5 / IMPα/β): able to block association

CC1=C(/C=C/C(C)=C/C=C/C(C)=C\C(=O)O)C(C)(C)CCC1 [13-cis retinoic acid]
effect on DENV infection (viral RNA copies at 24 h p.i.) (DENV-2 [2]): no effect on DENV infection

CC1=C(/C=C/C(C)=C/C=C/C(C)=C/C(=O)O)C(C)(C)CCC1 [ATRA, all-trans retinoic acid]
effect on DENV infection (viral RNA copies at 24 h p.i.) (DENV-2 [2]): no effect on DENV infection
block of association of DENV-2 NS5 with IMPα/β (DENV-2 NS5 / IMPα/β): neither ATRA nor 4-MPR were able to disrupt association

C#C[C@@]1(O)[C@H](O)[C@@H](CO)O[C@H]1n1ccc2c(N)ncnc21 [NITD008]
viral RNA levels (NS1 qPCR) (DENV-2 [1]; 10 μM added 12 h p.i.): reduced RNA levels

C/C(=C\c1ccc(C(=O)O)cc1)c1ccc2c(c1)C(C)(C)CCC2(C)C [arotinoid acid]
effect on DENV infection (viral RNA copies at 24 h p.i.) (DENV-2 [2]): no effect on DENV infection
